Columns and labels:
DBA/2N type mice = assay: Audiogenic seizure suppressing effect; format: in vivo; details: compound 10 mg/kg, i.p., audio stimulus after 20 minutes, seizure score; for inhibition in vivo at 10 mg/kg: Mus musculus, ip, 20 min, read-out: Antiseizure effect (suppression rate %); for Antiseizure effect (suppression rate %): 10 mg/kg
Experimental: Audiogenic Seizure Suppressing Effect
The audiogenic seizure suppressing effect of the compounds was evaluated by the method of Sarro et al. [G. B. De Sarro et al., Br. J. Pharmacol., 93, 247 (1988)]. That is, the compound dissolved in 10% 2-hydroxypropyl-β-cyclodextrin was administered intraperitoneally to DBA/2N type mice (male, 3 weeks old). After 20 minutes, a supersonic washer was used to apply audio stimulus of at least 90 dB for 1 minute. The wild running (WR), clonic seizures (clonus), tonic seizures (tonus), and the respiratory arrest (RA) were observed. The seizure suppressing effect was evaluated from the rate of suppression of the average value of the seizure score found as 0=no response, 1=WR, 2=clonus, 3=tonus, and 4=RA.

Sodium channel = assay: Inhibitory effect of veratrizine-induced sodium channel activity (synaptozome membrane potential, Rhodamine 6G); format: biochemical, Wistar rats; details: compound 0.1 μM; rat brain synaptozomes, veratrizine-induced depolarization
Excerpt: Inhibitory Effect of Veratrizine-induced Sodium Channel Activity

Acute toxicity test = details: male, mouse, in vivo, iv, ddY mice, death rate up to 24 hours after administration
Experimental: A pharmaceutical preparation was administered intravenously to ddY mice (male, 6 weeks old). The 50% lethal dosage LD50 of the acute toxicity was calculated by an ordinary method from the death rate up to 24 hours after administration.

T-type Ca^2+ channel = assay: T-type calcium channel inhibitory effect (whole-cell patch clamp, hippocampal CA1 pyramidal cells); format: cell-based, Wistar rats; details: rat hippocampal CA1 pyramidal cells; peak current after 1 minute of application
Experimental: T-Type Calcium Channel Inhibitory Effect
The hippocampal CA1 pyramidal cells were isolated from Wistar rats (female, 1 week old) in according to the method reported by Takahashi et al. [K. Takahashi et al.; J. Pharmacol. Exp. Ther., 256, 169 (1991)] and the T-type calcium current was measured under conditions of a fixed membrane potential using the whole-cell configuration of the patch clamp technique. The effects of the compounds were evaluated from the rate of suppression of the peak current after 1 minute of application using the concentration clamp method.

Dopamine D2 receptor = molecular target: T1, Dopamine D2 receptor (Rattus norvegicus, UniProt P61169); assay: Dopamine D2 receptor blocking action ([^3H] raclopride, striatum membrane fraction); format: binding, Wistar male rats; details: 1.0 nM [^3H] raclopride, 25° C., 1 hour
T1 construct: membrane fraction prepared from the striatum of Wistar male rats; from tissue; host or cells: rat striatum membrane fraction
T1 sequence (P61169 whole entry): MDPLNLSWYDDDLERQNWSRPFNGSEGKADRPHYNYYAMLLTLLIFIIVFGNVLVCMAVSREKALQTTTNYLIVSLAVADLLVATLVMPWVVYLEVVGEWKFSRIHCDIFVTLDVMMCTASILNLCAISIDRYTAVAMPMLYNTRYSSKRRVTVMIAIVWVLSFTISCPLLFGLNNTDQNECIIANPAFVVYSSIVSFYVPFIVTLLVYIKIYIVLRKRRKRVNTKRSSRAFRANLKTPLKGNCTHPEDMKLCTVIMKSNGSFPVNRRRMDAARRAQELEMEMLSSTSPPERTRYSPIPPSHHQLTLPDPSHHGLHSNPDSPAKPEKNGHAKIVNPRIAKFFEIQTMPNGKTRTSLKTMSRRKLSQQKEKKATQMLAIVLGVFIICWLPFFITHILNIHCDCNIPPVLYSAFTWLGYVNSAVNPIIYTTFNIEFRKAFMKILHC
Experimental: Dopamine D2 Receptor Blocking Action
57 μl of the membrane fraction prepared from the striatum of Wistar male rats (6 weeks old) was incubated together with the compound and 1.0 nM [^3H] raclopride in a buffer at 25° C. for 1 hour. A GF/C glass filter (0.1% polyethylene imine treatment) was used for B/F separation. A beta plate was used for measurement of the radioactivity to evaluate the effect of the compound.

lipid peroxidation = assay: Lipid peroxidation suppressing effect (brain membrane preparation, malonaldehyde and 4-hydroxyalkenals); format: biochemical, Wistar rats; details: rat brain membrane preparation, 37° C., 30 minutes
Experimental: Lipid Peroxidation Suppressing Effect
The whole brains of Wistar rats (10 weeks old, male) were excised and homogenized in the 10 times volumes of 50 mM phosphate-buffered solution (pH=7.4) (hereinafter referred to as PBS). The centrifuged supernatent was further diluted fourfold and the result was used as the brain membrane preparation. The membrane preparation was incubated in the presence of vehicle (0.5% DMSO) or compound at 37° C. for 30 minutes and an automatic oxidation reaction promoted. The reaction was stopped by 35% perchloric acid, then the total of the main decomposition products of the peroxidized lipids present in the centrifuged supernatent, that is, malonaldehyde and 4-hydroxyalkenals, was measured using a BIOXYTECH®/LPO-586™ peroxidized lipid colorimetric assay kit (OXIS International, Inc.) and used as an indicator of the lipid peroxidation.

SMILES | inhibition in vivo at 10 mg/kg (DBA/2N type mice) [%] | also measured
Nc1ccc(OC[C@@H](O)CN2CCC(c3ccc(Oc4ccccc4)cc3)CC2)cc1 [Compound 25, (2S)-1-(4-aminophenoxy)-3-[4-(4-phenoxyphenyl)piperidin-1-yl]-2-propanol] | 58 | Anti-veratrizine effect (inhibiting rate %) (Sodium channel): 21%
Cc1cc(OC[C@@H](O)CN2CCC(c3ccc(Oc4ccccc4)cc3)CC2)c(C)c(C)c1N [Compound 26, (2S)-1-[(4-amino-2,3,5-trimethyl)phenoxy]-3-[4-(4-phenoxyphenyl)piperidin-1-yl]-2-propanol] | 74 | LD50 at 24 h (Acute toxicity test): 41 mg/kg; IC50 (T-type Ca^2+ channel): 3.4 µM; IC50 (Dopamine D2 receptor): 5.6 µM
Cc1cc(OC[C@@H](O)CN2CCC(c3ccc(Cc4ccc(F)cc4)cc3)CC2)c(C)c(C)c1N [Compound 27, (2S)-1-[(4-amino-2,3,5-trimethyl)phenoxy]-3-[4-(4-(4-fluorophenyl)methylphenyl)piperidin-1-yl]-2-propanol] | 55 | IC50 (Dopamine D2 receptor): 6.3 µM; IC50 (lipid peroxidation): 0.46 µM; Anti-veratrizine effect (inhibiting rate %) (Sodium channel): 32.1%
Cc1cc(OC[C@@H](O)CN2CCN(c3ccc(Cc4ccc(F)cc4)cc3)CC2)c(C)c(C)c1N [Compound 28, (2S)-1-[(4-amino-2,3,5-trimethyl)phenoxy]-3-[4-(4-(4-fluorophenyl)methylphenyl)piperazin-1-yl]-2-propanol] | 76 | LD50 at 24 h (Acute toxicity test): 47.3 mg/kg; IC50 (T-type Ca^2+ channel): 3 µM; IC50 (Dopamine D2 receptor): 12 µM
Cc1cc(OC[C@@H](O)CN2CCC(O)(c3ccc(-c4ccccc4)c(F)c3)CC2)c(C)c(C)c1N [Compound 30] | 44 | 
Cc1cc(OC[C@@H](O)CN2CCC(c3ccc(OC4CCCC4)cc3)CC2)c(C)c(C)c1N [Compound 31, (2S)-1-[(4-amino-2,3,5-trimethyl)phenoxy]-3-[4-(4-cyclopentyloxyphenyl)piperidin-1-yl]-2-propanol] | 74 | 
Cc1cc(OC[C@@H](O)CN2CCC(c3ccc(Oc4ccccc4)cc3)CC2)c(C)cc1N [Compound 32] | 70 | 
Cc1cc(OC[C@@H](O)CN2CCC(c3ccc(Cc4ccc(F)cc4)cc3)CC2)c(C)cc1N [Compound 33, (2S)-1-[(4-amino-2,5-dimethyl)phenoxy]-3-[4-(4-(4-fluorophenyl)methylphenyl)piperidin-1-yl]-2-propanol] | 78 | 
Cc1cc(OC[C@@H](O)CN2CCN(c3ccc(Cc4ccc(F)cc4)cc3)CC2)c(C)cc1N [Compound 34] | 74 | 
Cc1c(N)ccc(OC[C@@H](O)CN2CCC(c3ccc(Oc4ccccc4)cc3)CC2)c1C [Compound 35, (2S)-1-[(4-amino-2,3-dimethyl)phenoxy]-3-[4-(4-phenoxyphenyl)piperidin-1-yl]-2-propanol] | 74 | 
Cc1c(N)ccc(OC[C@@H](O)CN2CCC(c3ccc(Cc4ccc(F)cc4)cc3)CC2)c1C [Compound 36, (2S)-1-[(4-amino-2,3-dimethyl)phenoxy]-3-[4-(4-(4-fluorophenyl)methylphenyl)piperidin-1-yl]-2-propanol] | 68 | 
Cc1cc(N)c(C)c(C)c1OC[C@@H](O)CN1CCC(c2ccc(Oc3ccccc3)cc2)CC1 [Compound 38, (2S)-1-[(4-amino-2,3,6-trimethyl)phenoxy]-3-[4-(4-phenoxyphenyl)piperidin-1-yl]-2-propanol] | 92 | 
Cc1cc(N)c(C)c(C)c1OC[C@@H](O)CN1CCN(c2ccc(Cc3ccc(F)cc3)cc2)CC1 [Compound 40, (2S)-1-[(4-amino-2,3,6-trimethyl)phenoxy]-3-[4-(4-(4-fluorophenyl)methylphenyl)piperazin-1-yl]-2-propanol] | 80 | LD50 at 24 h (Acute toxicity test): 49.1 mg/kg; IC50 (Dopamine D2 receptor): 12 µM
COc1ccc(N)cc1OC[C@@H](O)CN1CCC(c2ccc(Oc3ccc(F)cc3)cc2)CC1 [Compound 42, (2S)-1-[(5-amino-2-methoxy)phenoxy]-3-[4-(4-(4-fluorophenoxy)phenyl)piperidin-1-yl]-2-propanol] | 50 | Anti-veratrizine effect (inhibiting rate %) (Sodium channel): 10.3%
COc1ccc(N)cc1OC[C@@H](O)CN1CCC(c2ccc(Cc3ccc(F)cc3)cc2)CC1 [Compound 43, (2S)-1-[(5-amino-2-methoxy)phenoxy]-3-[4-(4-(4-fluorophenyl)methylphenyl)piperidin-1-yl]-2-propanol] | 30 | Anti-veratrizine effect (inhibiting rate %) (Sodium channel): 21%
COc1ccc(N)cc1OC[C@@H](O)CN1CCN(c2ccc(Cc3ccc(F)cc3)cc2)CC1 [Compound 44, (2S)-1-[(5-amino-2-methoxy)phenoxy]-3-[4-(4-(4-fluorophenyl)methylphenyl)piperazin-1-yl]-2-propanol] | 80 | 
COc1ccc(N)cc1OC[C@@H](O)CN1CCC(c2ccc(OC3CCCC3)cc2)CC1 [Compound 45] | 44 | 
Cc1cc(C)c(OC[C@@H](O)CN2CCC(c3ccc(Oc4ccccc4)cc3)CC2)c(N)c1 [Compound 46, (2S)-1-[(2-amino-4,6-dimethyl)phenoxy]-3-[4-(4-phenoxyphenyl)piperidin-1-yl]-2-propanol] | 88 | 
Cc1cc(C)c(OC[C@@H](O)CN2CCC(c3ccc(Cc4ccc(F)cc4)cc3)CC2)c(N)c1 [Compound 47, (2S)-1-[(2-amino-4,6-dimethyl)phenoxy]-3-[4-(4-(4-fluorophenyl)methylphenyl)piperidin-1-yl]-2-propanol] | 56 | 
Cc1cc(C)c(OC[C@@H](O)CN2CCN(c3ccc(Cc4ccc(F)cc4)cc3)CC2)c(N)c1 [Compound 48, (2S)-1-[(2-amino-4,6-dimethyl)phenoxy]-3-[4-(4-(4-fluorophenyl)methylphenyl)piperazin-1-yl]-2-propanol] | 70 | 
COc1cc(Cl)c(N)cc1OC[C@@H](O)CN1CCC(c2ccc(Oc3ccccc3)cc2)CC1 [Compound 49, (2S)-1-[(5-amino-4-chloro-2-methoxy)phenoxy]-3-[4-(4-phenoxyphenyl)piperidin-1-yl]-2-propanol] | 42 | Anti-veratrizine effect (inhibiting rate %) (Sodium channel): 15.1%
Nc1cc(Cl)c(OC[C@@H](O)CN2CCC(c3ccc(Oc4ccccc4)cc3)CC2)c(Cl)c1 [Compound 51, (2S)-1-[(4-amino-2,6-dichloro)phenoxy]-3-[4-(4-phenoxyphenyl)piperidin-1-yl]-2-propanol] | 74 | 
COc1ccc(NCC(O)CN2CCC(c3ccc(Oc4ccccc4)cc3)CC2)c(C)c1 (stereo not drawn) [Compound 53, 1-[4-(4-phenoxyphenyl)piperidin-1-yl]-3-[(4-methoxy-2-methyl)phenylamino]-2-propanol] |  | Antiseizure effect (suppression rate %) (DBA/2N type mice): 46%; IC50 (T-type Ca^2+ channel): 2.2 µM; IC50 (Dopamine D2 receptor): 11 µM
COc1ccc(NCC(O)CN2CCC(c3ccc(Cc4ccc(F)cc4)cc3)CC2)c(C)c1 (stereo not drawn) [Compound 54] | 58 | 
COc1ccc(NCC(O)CN2CCN(c3ccc(Cc4ccc(F)cc4)cc3)CC2)c(C)c1 (stereo not drawn) [Compound 55] | 70 | 
COc1ccc(NC[C@@H](O)CN2CCC(c3ccc(Oc4ccccc4)cc3)CC2)c(C)c1 [Compound 56, (2R)-1-[4-(4-phenoxyphenyl)piperidin-1-yl]-3-[(4-methoxy-2-methyl)phenylamino]-2-propanol] |  | Antiseizure effect (suppression rate %) (DBA/2N type mice): 64%
COc1ccc(NC[C@H](O)CN2CCC(c3ccc(Oc4ccccc4)cc3)CC2)c(C)c1 [Compound 57] |  | Antiseizure effect (suppression rate %) (DBA/2N type mice): 68%
Cc1c(C)c(NCC(O)CN2CCC(c3ccc(Oc4ccccc4)cc3)CC2)c(C)c(C)c1N (stereo not drawn) [Compound 58, 3-[(4-amino-2,3,5,6-tetramethyl)phenylamino]-1-[4-(4-phenoxyphenyl)piperidin-1-yl]-2-propanol] | 68 | 
